In patent US5098900A, “3(2H)pyridazinone, process for its preparation and anti-allergic agent containing it” (Nissan Chemical Industries Ltd., priority 1984, dated 1992):

Assays:
LTD4 = LTD4 antagonism in isolated guinea-pig trachea (LTD4-induced contraction); format: cell-based; conditions: 5 min, test compound 10^-5 g/ml, LTD4 2×10^-8 g/ml; for inhibition at 10 µg/mL: Cavia porcellus
Protocol: (§1) (ii) LTC4 and LTD4 antagonisms in guinea-pig trachea
(§2) Antagonism for LTC4 and LTD4 were determined in isolated guinea-pig trachea prepared as spiral strip. 10 Tracheal preparations were suspended under 1 g tension in […] and they were incubated for 1 hr prior to use. Contractile responses to LTC4 (2×10^-8 g/ml) and LTD4 (2×10^-8 g/ml) were obtained after the maximal response to histamine (10^-4 M). Test compounds dissolved in 100% dimethyl sulfoxide were added to the organ baths (final concentration of 10^-5 g/ml) 5 min prior to LTC4 and LTD4 addition, and then contractile responses to LTC4 and LTD4 were compared with those of control which was obtained from a paired trachea in the absence of test compounds. LTC4 - and LTD4 -induced contractions were expressed as a percentage of the maximal response to histamine. The antagonism was determined as follows: Antagonism (%)=(1.0-% contraction in test/% contraction in control)×100

ddY strain male = assay: Acute toxicity test, method-(2), intraperitoneal injection; format: in vivo, ddY strain male (4 weeks old); conditions: 7 days
Protocol: The lethal ratio was determined in ddY strain male (4 weeks old) at 7 days after the intraperitoneal injection of test compounds.

LTC4 = LTC4 antagonism in isolated guinea-pig trachea (LTC4-induced contraction); format: cell-based; conditions: 5 min, test compound 10^-5 g/ml, LTC4 2×10^-8 g/ml, guinea-pig trachea; for inhibition at 10 µg/mL: Cavia porcellus, read-out: LTC4 antagonism
Protocol: as §1, §2

[1] = test system: antigen-induced anaphylactic bronchoconstriction; assay: Effect on anaphylactic bronchoconstriction in passively sensitized guinea-pig; format: in vivo; conditions: 2 mg/kg, i.v.
Protocol: (iii) Effect on anaphylactic bronchoconstriction in passively sensitized guinea-pig
Male guinea-pigs (350-450 g) were passively sensitized with intravenous (i.v.) injection of 0.125 ml rabbit anti-EA serum (Cappel Laboratories) 1 day preceding the experiment. […] The right jugular vein was cannulated for the administration of the all agents and trachea was cannulated to record total pulmonary resistance. Guinea-pigs were artificially ventilated by a small animal respirator (Shinano, Model SN-480-7) set at a stroke volume of 4-5 ml and a rate of 50 breaths per min. […] The increase in air overflow volume was expressed as a percentage of the maximum bronchoconstriction obtained by clamping off the trachea. Following surgical preparation, the animals were pretreated with indomethacin (1.0 mg/kg, 10 min), pyrilamine (2 mg/kg, 6 min) and propranolol (0.1 mg/kg, 5 min) prior to the EA challenge (0.1 or 10 mg/kg). All test compounds, 2 mg/kg in 3% Tween 80 or 3% PEG-400, were administered 1 min before the EA challenge. Inhibition (%) of bronchoconstriction was determined as follows Inhibition (%)=(1.0% -maximum bronchoconstriction in test/% maximum bronchoconstriction in control) ×100.
In the Table, the dose of EA was 10 mg/kg, and each compound was dissolved or suspended in 3% Tween 80.
In the Table, the dose of EA was 0.1 mg/kg.
*: PEG represents polyethylene glycol400.

Compound: CCOc1ccccc1CNc1cnn(CC)c(=O)c1Cl [compound 90]
- inhibition at 10 µg/mL (LTD4): 96%
- Lethal ratio (Death number/Experimental number) (ddY strain male; 200 mg/kg): 0/2
- Lethal ratio (Death number/Experimental number) (ddY strain male; 400 mg/kg): 0/2

Compound: COc1ccc(CNc2cnn(C(C)C)c(=O)c2Cl)c(OC)c1 [Compound No. 97, 4-chloro-5-(2,4-dimethoxybenzylamino)-2-i-propyl-3(2H)pyridazinone]
- inhibition at 10 µg/mL (LTC4): 100%
- inhibition at 10 µg/mL (LTD4): 100%
- Inhibition of anaphylactic bronchoconstriction ([1]; EA 0.1 mg/kg, Tween 80): 32%
- Lethal ratio (Death number/Experimental number) (ddY strain male; 200 mg/kg): 0/2
- Lethal ratio (Death number/Experimental number) (ddY strain male; 400 mg/kg): 0/1

Compound: CCn1ncc(NCc2ccc(OC)cc2OC)c(Cl)c1=O [compound 99]
- inhibition at 10 µg/mL (LTD4): 99%
- Lethal ratio (Death number/Experimental number) (ddY strain male; 100 mg/kg): 0/2

Compound: Cc1cccc(CNc2cnn(C(C)C)c(=O)c2Cl)c1 [compound 76]
- inhibition at 10 µg/mL (LTD4): 97%
- Lethal ratio (Death number/Experimental number) (ddY strain male; 200 mg/kg): 0/2
- Lethal ratio (Death number/Experimental number) (ddY strain male; 400 mg/kg): 0/1

Compound: Cc1ccc(CNc2cnn(C(C)C)c(=O)c2Cl)c(C)c1 [Compound No. 80]
- inhibition at 10 µg/mL (LTD4): 99%
- Lethal ratio (Death number/Experimental number) (ddY strain male; 200 mg/kg): 0/2
- Lethal ratio (Death number/Experimental number) (ddY strain male; 400 mg/kg): 0/1

Compound: COC(=O)/C=C/c1ccc(CNc2cnn(C(C)(C)C)c(=O)c2Cl)cc1 [compound 53]
- inhibition at 10 µg/mL (LTD4): 38%
- Inhibition of anaphylactic bronchoconstriction ([1]; EA 10 mg/kg, 3% Tween 80): 38%

Compound: COc1ccc(CNc2cnn(C(C)C)c(=O)c2Cl)cc1OC [Compound No. 15]
- inhibition at 10 µg/mL (LTC4): 100%
- inhibition at 10 µg/mL (LTD4): 80%
- Inhibition of anaphylactic bronchoconstriction ([1]; EA 10 mg/kg, 3% Tween 80): 56%

Compound: CCN(CC)c1ccc(CNc2cnn(C(C)(C)C)c(=O)c2Cl)cc1 [compound 29]
- inhibition at 10 µg/mL (LTC4): 68%

Compound: CCn1ncc(NCc2cccc(OC)c2)c(Cl)c1=O [Compound No. 6]
- inhibition at 10 µg/mL (LTC4): 33%
- inhibition at 10 µg/mL (LTD4): 62%

Compound: CCN1CCN(Cc2ccc(CNc3cnn(C(C)(C)C)c(=O)c3Cl)cc2)CC1 [compound 49]
- LTC4 antagonism (LTC4): 8%

Compound: CC(C)(C)n1ncc(NCc2ccc(/C=C/C(=O)O)cc2)c(Cl)c1=O [compound 24]
- inhibition at 10 µg/mL (LTC4): 7%

Compound: CCCOc1cccc(CNc2cnn(CC)c(=O)c2Cl)c1 [compound 93]
- inhibition at 10 µg/mL (LTC4): 93%
- inhibition at 10 µg/mL (LTD4): 96%

Compound: CCOc1cc(OC)ccc1CNc1cnn(C(C)C)c(=O)c1Cl [compound 109]
- inhibition at 10 µg/mL (LTD4): 92%
- Inhibition of anaphylactic bronchoconstriction ([1]; EA 0.1 mg/kg, Tween 80): 30%

Compound: CCCn1ncc(NCc2ccc(OC)c(OC)c2)c(Cl)c1=O [Compound No. 14, 4-Chloro-5-(3,4-dimethoxybenzylamino)-2-n-propyl-3-(2H)pyridazinone]
- inhibition at 10 µg/mL (LTC4): 100%
- inhibition at 10 µg/mL (LTD4): 36%
- Inhibition of anaphylactic bronchoconstriction ([1]; EA 10 mg/kg, 3% Tween 80): 28%

Compound: CC(C)n1ncc(NCc2ccc3c(c2)OCO3)c(Cl)c1=O [compound 119]
- inhibition at 10 µg/mL (LTC4): 100%
- inhibition at 10 µg/mL (LTD4): 100%
- Inhibition of anaphylactic bronchoconstriction ([1]; EA 0.1 mg/kg, Tween 80): 33%

Compound: CN(C)CCCNC(=O)c1ccc(CNc2cnn(C(C)(C)C)c(=O)c2Cl)cc1 [compound 59]
- inhibition at 10 µg/mL (LTC4): 17%

Compound: CCOc1cc(CNc2cnn(CC)c(=O)c2Cl)ccc1OC [compound 102]
- inhibition at 10 µg/mL (LTC4): 97%
- inhibition at 10 µg/mL (LTD4): 86%
- Lethal ratio (Death number/Experimental number) (ddY strain male; 100 mg/kg): 0/2

Compound: CCCN(CCC)Cc1ccc(CN(C)c2cnn(C(C)(C)C)c(=O)c2Cl)cc1 [Compound No. 43, 4-Chloro-5-(4-di-n-propylaminomethyl-N-methylbenzylamino)-2-t-butyl-3(2H)pyridazinone]
- inhibition at 10 µg/mL (LTC4): 57%
- Inhibition of anaphylactic bronchoconstriction ([1]; EA 10 mg/kg, 3% Tween 80): 14%

Compound: Cc1ccc(CNc2cnn(C(C)C)c(=O)c2Cl)cc1 [compound 77]
- inhibition at 10 µg/mL (LTD4): 90%
- Lethal ratio (Death number/Experimental number) (ddY strain male; 200 mg/kg): 0/2
- Lethal ratio (Death number/Experimental number) (ddY strain male; 400 mg/kg): 0/2

Compound: CCCOc1cc(OC)ccc1CNc1cnn(CC)c(=O)c1Cl [compound 112]
- inhibition at 10 µg/mL (LTD4): 86%
- Inhibition of anaphylactic bronchoconstriction ([1]; EA 0.1 mg/kg, Tween 80): 49%

Compound: CCCOc1cccc(CNc2cnn(C(C)C)c(=O)c2Cl)c1 [compound 94]
- inhibition at 10 µg/mL (LTC4): 83%
- inhibition at 10 µg/mL (LTD4): 75%
- Lethal ratio (Death number/Experimental number) (ddY strain male; 200 mg/kg): 0/2

Compound: CCn1ncc(NCc2ccc(C)cc2C)c(Cl)c1=O [compound 79]
- inhibition at 10 µg/mL (LTD4): 100%
- Inhibition of anaphylactic bronchoconstriction ([1]; EA 0.1 mg/kg, Tween 80): 61%
- Lethal ratio (Death number/Experimental number) (ddY strain male; 200 mg/kg): 0/2

Compound: Cc1ccccc1CNc1cnn(C(C)C)c(=O)c1Cl [compound 78]
- inhibition at 10 µg/mL (LTD4): 97%
- Lethal ratio (Death number/Experimental number) (ddY strain male; 200 mg/kg): 0/2
- Lethal ratio (Death number/Experimental number) (ddY strain male; 400 mg/kg): 0/1

Compound: CCOc1cccc(CNc2cnn(CC)c(=O)c2Cl)c1OCc1ccccc1 [compound 116]
- inhibition at 10 µg/mL (LTD4): 89%

Compound: CCn1ncc(NCc2cc(OC)c(OC)c(OC)c2)c(Cl)c1=O [compound 121]
- inhibition at 10 µg/mL (LTD4): 31%

Compound: CCCOc1cc(CNc2cnn(C(C)C)c(=O)c2C)ccc1OC [compound 153]
- inhibition at 10 µg/mL (LTD4): 45%

Compound: COc1ccc(CNc2cnn(C(C)C)c(=O)c2Cl)cc1OCCCCC(=O)O [compound 143]
- inhibition at 10 µg/mL (LTD4): 28%

Compound: CCOc1ccc(CNc2cnn(C(C)C)c(=O)c2Cl)cc1 [compound 91]
- inhibition at 10 µg/mL (LTD4): 93%
- Inhibition of anaphylactic bronchoconstriction ([1]; EA 0.1 mg/kg, PEG (polyethylene glycol 400)): 73%
- Lethal ratio (Death number/Experimental number) (ddY strain male; 100 mg/kg): 0/2

Compound: CCn1ncc(NCc2ccc(C)cc2C)c(Br)c1=O [compound 158]
- inhibition at 10 µg/mL (LTD4): 99%

Compound: CCCOc1cc(CNc2cnn(C(C)C)c(=O)c2Cl)ccc1O [compound 133]
- inhibition at 10 µg/mL (LTD4): 66%

Compound: CCOc1ccc(CNc2cnn(C(C)C)c(=O)c2Cl)cc1OC [compound 107]
- inhibition at 10 µg/mL (LTD4): 65%

Compound: CCc1c(NCc2ccc(C)cc2)cnn(C(C)(C)C)c1=O [Compound No. 36, 4-Ethyl-5-(4-methylbenzylamino)-2-t-butyl-3(2H)pyridazinone]
- inhibition at 10 µg/mL (LTD4): 19%

Compound: CCOc1ccc(CNc2cnn(CC)c(=O)c2Br)cc1 [compound 155]
- inhibition at 10 µg/mL (LTD4): 60%

Compound: CCc1cc(CNc2cnn(C(C)C)c(=O)c2Cl)ccc1OCc1ccccc1 [compound 82]
- inhibition at 10 µg/mL (LTD4): 46%

Compound: CCOc1cccc(CNc2cnn(CC)c(=O)c2Br)c1 [compound 156]
- inhibition at 10 µg/mL (LTD4): 72%

Compound: CCCOc1cc(CNc2cnn(CC)c(=O)c2Cl)ccc1O [compound 134]
- inhibition at 10 µg/mL (LTD4): 75%

Compound: CCOc1cccc(CNc2cnn(C(C)C)c(=O)c2)c1O [compound 128]
- inhibition at 10 µg/mL (LTD4): 21%

Compound: CN(C)Cc1ccc(CNc2cnn(C(C)(C)C)c(=O)c2Cl)cc1 [compound 48]
- inhibition at 10 µg/mL (LTC4): 30%

Compound: COc1ccc(CNc2cnn(C(C)(C)C)c(=O)c2Br)cc1OC [compound 17]
- inhibition at 10 µg/mL (LTD4): 80%

Compound: CCCOc1ccc(CNc2cnn(CC)c(=O)c2Cl)cc1OC [compound 108]
- inhibition at 10 µg/mL (LTD4): 53%

Compound: CC(C)n1ncc(NCc2ccc(C=O)cc2)c(Cl)c1=O [Compound No. 140, 4-Chloro-5-(4-formylbenzylamino)-2-i-proyl-3(2H)pyridazinone]
- inhibition at 10 µg/mL (LTD4): 77%

Compound: CCc1ccc(CNc2cnn(CC)c(=O)c2Cl)cc1 [compound 81]
- inhibition at 10 µg/mL (LTD4): 68%

Compound: CCOc1ccc(CNc2cnn(C(C)C)c(=O)c2Br)cc1 [Compound No. 164, 4-Bromo-5-(4-ethoxybenzylamino)-2-i-propyl-3(2H)pyridazinone]
- inhibition at 10 µg/mL (LTD4): 82%

Compound: CC(C)(C)n1ncc(NCc2ccc(C(=O)N3CCOCC3)cc2)c(Cl)c1=O [compound 40]
- inhibition at 10 µg/mL (LTC4): 17%

Compound: CCOc1cc(CNc2cnn(CC)c(=O)c2Cl)ccc1O [compound 136]
- inhibition at 10 µg/mL (LTD4): 64%

Compound: COc1ccc(CNc2cnn(C(C)C)c(=O)c2Cl)cc1 [Compound No. 87]
- inhibition at 10 µg/mL (LTD4): 100%
- Inhibition of anaphylactic bronchoconstriction ([1]; EA 0.1 mg/kg, Tween 80): 61%
- Lethal ratio (Death number/Experimental number) (ddY strain male; 200 mg/kg): 0/2
- Lethal ratio (Death number/Experimental number) (ddY strain male; 400 mg/kg): 0/2

Compound: CC(C)n1ncc(NCc2ccc(N(C)C)cc2)c(Cl)c1=O [compound 26]
- LTD4 antagonism (LTD4): 38%

Compound: COc1ccc(CNc2cnn(C(C)C)c(=O)c2Br)cc1 [compound 162]
- inhibition at 10 µg/mL (LTD4): 100%

Compound: CCn1ncc(NCc2ccc(OC)c(OC)c2)c(Cl)c1=O [Compound No. 13]
- inhibition at 10 µg/mL (LTD4): 76%
- Inhibition of anaphylactic bronchoconstriction ([1]; EA 10 mg/kg, 3% Tween 80): 43%

Compound: CC(C)n1ncc(NCc2ccccc2)c(Cl)c1=O [Compound No. 74, 4-Chloro-5-(benzylamino)-2-i-propyl-3(2H)pyridazinone]
- inhibition at 10 µg/mL (LTD4): 91%
- Inhibition of anaphylactic bronchoconstriction ([1]; EA 0.1 mg/kg, Tween 80): 31%
